Legend:
Experiment in all cases: fluorescent cephalosporin
Assay type in all cases: biochemical
IMP-28 = IMP-28 (Klebsiella oxytoca, UniProt G4WB26); details: read-out: IMP-28 IC50; […] min pre-incubation, FC5 substrate, HEPES
NDM-1 = NDM-1 (Klebsiella pneumoniae, UniProt C7C422)
VIM-2 = VIM-2 (Pseudomonas aeruginosa, UniProt Q9K2N0); details: read-out: VIM-2 IC50; […] min pre-incubation, FC5 substrate, HEPES

IMP-28, sequence (G4WB26 20-246): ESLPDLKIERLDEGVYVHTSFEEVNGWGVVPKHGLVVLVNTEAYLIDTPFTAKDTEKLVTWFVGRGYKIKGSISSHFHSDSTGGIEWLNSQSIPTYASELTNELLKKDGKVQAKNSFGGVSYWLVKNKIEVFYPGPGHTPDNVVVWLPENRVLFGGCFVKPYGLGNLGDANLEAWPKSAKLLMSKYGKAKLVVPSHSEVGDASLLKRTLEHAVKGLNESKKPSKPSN
NDM-1, sequence (C7C422 29-270, looked up): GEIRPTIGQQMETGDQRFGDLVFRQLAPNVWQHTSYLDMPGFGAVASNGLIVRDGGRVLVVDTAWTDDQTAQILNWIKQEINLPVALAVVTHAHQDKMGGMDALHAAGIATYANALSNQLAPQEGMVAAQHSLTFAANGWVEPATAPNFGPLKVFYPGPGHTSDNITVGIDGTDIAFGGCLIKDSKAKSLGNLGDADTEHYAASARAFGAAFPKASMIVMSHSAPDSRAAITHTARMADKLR

Structure (SMILES) | IC50 (IMP-28) [µM] | IC50 (NDM-1) [µM] | IC50 (VIM-2) [µM]
O=C(Cc1ccccc1)N[C@@H]1C(=O)N2C(C(=O)O)=C(CSc3cccc4cccnc34)C[S+]([O-])[C@H]12 (stereo partly shown) [compound 7] | 71.9 ± 3.05 | 2.18 ± 0.14 | 6.35 ± 0.56
O=C(O)c1cccc(C(=O)O)n1 [DPA] | 9.65 ± 0.62 |  | 4.34 ± 0.67
O=C(Cc1ccccc1)N[C@@H]1C(=O)N2C(C(=O)O)=C(COC(=O)c3cccc(C(=O)O)n3)CS(=O)(=O)[C@H]12 [compound 15] | 61.9 ± 1.82 | 18.8 ± 1.22 | 10.8 ± 0.6
O=C(Cc1ccccc1)N[C@@H]1C(=O)N2C(C(=O)O)=C(COC(=O)c3cccc(C(=O)O)n3)CS[C@H]12 [compound 13] | 7.39 ± 0.1 | 2.13 ± 0.07 | 1.87 ± 0.1
Sc1cccc2cccnc12 [8-TQ] | 4.2 ± 0.11 | 2.99 ± 0.58 | 4.2 ± 1
O=C(Cc1ccccc1)N[C@@H]1C(=O)N2C(C(=O)O)=C(CSc3cccc4cccnc34)CS[C@H]12 [compound 6] | 10.3 ± 0.22 |  | 3.64 ± 0.27
O=C(Cc1ccccc1)N[C@@H]1C(=O)N2C(C(=O)O)=C(COC(=O)c3cccc(C(=O)O)n3)C[S+]([O-])[C@H]12 (stereo partly shown) [compound 14] | 46.7 ± 2.76 | 0.299 ± 0.005 | 0.756 ± 0.056
O=C(Cc1ccccc1)N[C@@H]1C(=O)N2C(C(=O)O)=C(CSc3cccc4cccnc34)CS(=O)(=O)[C@H]12 [compound 8] | 46.2 ± 3.13 | 8.47 ± 1.02 | 4.17 ± 0.65
